Reference: patent publication US5663139A, “Inhibitors of retroviral proteases” (Hoechst Aktiengesellschaft, priority 1992, dated 1997)
Structures can show the parent of a compound that is named as a salt.

Target: T1, HIV protease (Human immunodeficiency virus type 1 group M subtype B, UniProt P04585)
T1 construct: The HIV protease is composed of 99 amino acids and evidently excises itself out of the pol polyprotein
Test: HIV protease enzyme test (HPLC cleavage of heptapeptide substrate H-Ser-Phe-Asn-Phe-Opr-Gln-Ile-OH)
Type: biochemical
Settings: inhibitor concentration at which the cleavage rate is halved, 37° C., 2 hours
From the text: In particular, they inhibit HIV protease. Their enzyme-inhibitory effect, which is in the milli- to subnano-molar range, can be determined as follows.
The substrates of the HIV protease which have been employed thus far include the heptapeptide: H-Ser-Phe-Asn-Phe-Pro-Gln-Ile-OH (SEQ ID NO. 1) (P. L. Darke et al., Biophys. Res. Commun. 156 (1988) 297-303). When this peptide is used as the substrate, the HIV protease cleaves it between the second Phe and the Pro.
General instructions for testing inhibitors of the HIV proteases:
2 mg of H-Ser-Phe-Asn-Phe-Opr-Gln-Ile-OH (H-Opr-OH=5-oxaproline) (SEQ ID NO. 1) are dissolved in 1 ml of MGTE 15 buffer (use of ultrasonication if required) and this solution is subsequently filtered through a sterilizing filter (0.45 μm).
2.5 times the necessary quantity of inhibitor to give the desired molarity per ml of solution is weighed out and dissolved in DMSO (10% of the final volume). This solution is diluted with MGTE 15 buffer to the final volume and then filtered through a sterilizing filter (0.45 μm).
5 μl of the HIV protease solution are diluted with MGTE25 buffer as required.
In each case, 10 μl of the substrate solution are pipetted into a test tube (16×100) having a screw cap. 10 μl of MGTE 15 buffer, which contains 10% DMSO, are pipetted in for the blank experiment. 10 μl of the inihibitor solutions are added to each of the remaining test tubes. The tubes are incubated at 37° C. for 5-10 minutes and 5 μl of the protease solution are then added to each sample. Following reaction at 37° C. for 2 hours, 10 or 20 μl (depending on the sensitivity of the HPLC equipment) are pipetted out from each sample, added to microvials and diluted with 120 μl of the HPLC eluant.
e) Conditions for the HPLC Analysis
Under the conditions chosen for this experiment, the heptapeptide is separated from the N-terminal tetrapeptide resulting from the enzymic cleavage. The % content of tetrapeptide peak related to the sum of tetrapeptide+heptapeptide gives the cleavage rate. The following IC50 values indicate the inhibitor concentrations at which the cleavage rate is halved: […]

CCOP(=O)(C(Cc1ccccc1)NC(=O)[C@@H](NC(=O)[C@@H](N)Cc1cccc2ccccc12)C(C)C)C(O)C(Cc1ccccc1)NC(=O)[C@@H](NC(=O)[C@@H](N)Cc1cccc2ccccc12)C(C)C (stereo partly drawn) [Example 7, Ethyl 1-{2-[(L-naphthylalanyl-L-valyl)amino]-1-hydroxy-3-phenylpropyl},1-{1-[(L-naphthylalanyl-L-valyl)amino]-2-phenylethyl}phosphinate bistrifluoroacetate] gave an IC50 of 15 nM.

CCOP(=O)(C(Cc1ccccc1)NC(=O)[C@@H](NC(=O)OCc1ccccc1)C(C)C)C(O)C(Cc1ccccc1)NC(=O)[C@@H](NC(=O)OCc1ccccc1)C(C)C (some centres unmarked) [Example 3] was tested, and the IC50 was 70 nM.

Compound CC(C)[C@H](NC(=O)OCc1ccccc1)C(=O)NC(Cc1ccccc1)C(O)P(=O)(O)C(Cc1ccccc1)NC(=O)[C@@H](NC(=O)OCc1ccccc1)C(C)C (stereo partly drawn) [Example 4, 1-{2-[(Benzyloxycarbonyl-L-valyl)amino]-1-hydroxy-3-phenylpropyl},1-{-[(benzyloxycarbonyl-L-valyl)amino]-2-phenylethyl}phosphinic acid] has an IC50 of 1.3 nM.

CC(C)[C@H](NC(=O)[C@@H](N)Cc1cccc2ccccc12)C(=O)NC(Cc1ccccc1)C(O)P(=O)(O)C(Cc1ccccc1)NC(=O)[C@@H](NC(=O)[C@@H](N)Cc1cccc2ccccc12)C(C)C (stereo partly drawn) [Example 8, 1-{2-[(L-Naphthylalanyl-L-valyl)amino]-1-hydroxy-3-phenylpropyl},1-{1-[(L-naphthylalanyl-L-valyl)amino]-2-phenylethyl}phosphinic acid dihydrobromide] was tested, and the IC50 was 0.5 nM.

Work on CC(C)[C@H](NC(=O)C(Cc1cccc2ccccc12)CS(=O)(=O)C(C)(C)C)C(=O)NC(Cc1ccccc1)C(O)P(=O)(O)C(Cc1ccccc1)NC(=O)[C@@H](NC(=O)C(Cc1cccc2ccccc12)CS(=O)(=O)C(C)(C)C)C(C)C (stereo partly drawn) [Example 10, 1-{2-[((2S(tert-Butylsulfonylmethyl)-3-(1-naphthyl)-propionyl)-L-valyl)amino]-1-hydroxy-3-phenylpropyl},1-{1-[((2S(tert-butylsulfonylmethyl)-3-(1-naphthyl)propionyl)-L-valyl)amino]-2-phenylethyl}phosphinic acid] yielded an IC50 of 4.2 nM.
